The values below come from patent publication US12391685B2, “Inhibitors of RNA-guided nuclease target binding and uses thereof” (THE BROAD INSTITUTE, INC., priority 2018, dated 2025).

Entries after “also recorded” stand apart in the source; their conditions may differ. Like-named read-outs stand apart in the source and are kept apart here. Where only a bound is given, the exact number is not on record here.

The term IC50 denotes the concentration that inhibits the measured activity by half.

Data set [1] concerns the target T1, SpCas9:gRNA complex (Streptococcus pyogenes serotype M1, UniProt Q99ZW2).
T1 construct: made in house; host or cells: E. coli Rosetta (DE3)
Put plainly: 19F NMR binding assay. Further details: species or system S. pyogenes. The settings on record: for receptor occupancy at 50 µM: read-out: Fractional Occupancy. How it is done:
Table 8 NMR parameters used for analysis of BRD7087 binding to SpCas9:gRNA complex. The binding study of BRD7087 to SpCas9:gRNA complex was analyzed based on the method described by Shortridge et. al. The linewidth (LW) increases with increasing SpCas9:gRNA concentration, as expected. Peak intensity values were used to measure the fractional occupancy using the equation Fractional Occupancy=(1−Ibound/I0), where I0 is the intensity of the peak with no protein in the sample. The peak area remains relatively constant, as expected for a fixed concentration of ligand.
NMR binding assay. All samples were prepared with 50 μM BRD7087 in 20 mM Tris buffer (pH 7.4) with varying concentrations of SpCas9:gRNA in a 3 mm NMR tube. Experiments were performed on a 600 MHZ (^19F: 564.71 MHZ) Bruker Avance III NMR spectrometer equipped with a 5 mm QCI-F CryoProbe and a SampleJet for automated sample handling. To acquire spectra, a standard one-pulse ^19F experiment with WALTZ-16 for proton decoupling during acquisition, a 5 second recycle delay, and 256 scans were used. All spectra were recorded at 280 K. NMR data were apodized with a 1 Hz exponential function prior to Fourier transformation. All spectra were baseline corrected, and peak widths and intensities were extracted using the automated line-fitting feature provided with the MNova software package.

The nature of data set [2]: Aggregation by dynamic light scattering in PBS. To be noted: 40-100 μM tested.
In data set [3] the target is FnCpf1 (Francisella tularensis subsp. novicida, UniProt A0Q7Q2). It counts as cell-based. To be noted: 6-20 μM, 30 h.
Data set [4] addresses T2, SpCas9:gRNA (Streptococcus pyogenes serotype M1, UniProt Q99ZW2).
T2 construct: made in house; host or cells: E. coli Rosetta (DE3)
The data set is described as follows: In vitro DNA cleavage assay. It counts as biochemical, S. pyogenes. The settings on record: SpCas9 5 nM; read-out: apparent IC50. How it is done: In vitro DNA cleavage assay. Inhibition of SpCas9 nuclease activity was assessed in an in vitro DNA cleavage assay with a linearized substrate plasmid DNA. A 94 μL of preformed SpCas9:gRNA (5.3 nM) was incubated with a 3 μL DMSO solution of BRD0539 at the indicated concentrations (13.6-25 μM) for 30 min at room temperature followed by addition of 3 μL of 33.3 nM substrate DNA and incubation for additional 30 min at 37° C. The reaction was quenched by the addition of 2 μL of Proteinase K (Qiagen) for 10 min and then analyzed by 1% agarose gel and visualized by SYBR Gold (Thermofisher). The bands were quantified by Image J and plotted in GraphPad Prism.

Data set [5] addresses T3, SpCas9:DNA interactions (Streptococcus pyogenes serotype M1, UniProt Q99ZW2).
T3 construct: made in house; host or cells: E. coli Rosetta (DE3)
Put plainly: Differential scanning fluorimetry, disruption of SpCas9-DNA interaction. Format: binding, S. pyogenes. The settings on record: SpCas9 1 μM, 8PAM DNA 2 μM, BRD0539 5-20 μM. How it is done: Disruption of SpCas9-DNA interaction by BRD0539. Protein melting experiments were performed in a 384-well format using a 6 μL reaction volume in a LightCycler 480 instrument. For DNA binding assay, 1 μM SpCas9 (1 μM) was incubated with indicated amount of 8PAM DNA (0.25, 0.5, 1, and 2 μM) for 15 min in a 20 mM Tris-HCl buffer (150 mM KCl, 5 mM MgCl2, 1 mM DTT, pH 7.5). For inhibition assay, SpCas9 (1 μM) or SpCas9:gRNA (1 μM) was incubated with indicated amount of either BRD0539 or equivalent amount of DMSO for 15 min in a 20 mM Tris-HCl buffer (150 mM KCl, 5 mM MgCl2, 1 mM DTT, pH 7.5). Next, a 8PAM DNA (2 μM) was added to each of the reaction and incubated for additional 15 min followed by addition of 1 μL of 100×SYPRO® Orange (Invitrogen) before running the melting cycle with a temperature gradient of 4.8° C./min. Experiments were performed in duplicate and data were processed using Roche LightCycler® 480 Protein Melting software.
A general note: In DSF a fluorescence change marks the thermal transition of the protein.

For data set [6], the target named is T4, SpCas9:gRNA interaction (Streptococcus pyogenes serotype M1, UniProt Q99ZW2).
T4 construct: made in house; host or cells: E. coli Rosetta (DE3)
Put plainly: Fluorescence polarization assay for SpCas9-gRNA binding. The settings on record: 10-30 μM. Further details: species or system S. pyogenes. How it is done: FIGS. 10A-10E—(FIG. 10A) Fluorescence polarization assay for detecting SpCas9-gRNA binding. A FITC-labeled crRNA:tracrRNA (25 nM) was titrated with an increasing amount of SpCas9 (7.5-250 nM). Error bars represent ±s.d. across technical replicates (n=3). […] An unlabeled crRNA:tracrRNA (25 nM) was pre-incubated with SpCas9 (25 nM) for 10 min before the addition of FITCcrRNA:tracrRNA (25 nM). Error bars represent ±s.d. across technical replicates (n=3). (FIG. 10C) Fluorescence polarization assay for determining the effect of BRD0539 in the SpCas9-FITCcrRNA:tracrRNA binding. SpCas9 (25 nM) was incubated with the indicated amount of BRD0539 (10-30 μM) for 15 min followed by the addition of FITC-crRNA:tracrRNA (25 nM), which was incubated for 30 min before measuring the FP signal. Error bars represent ±s.d. across technical replicates (n=3). (FIG. 10D) In vitro pulldown assay of SpCas9 by the BRD0539-biotin conjugate from WM793-SpCas9 cell lysate. Streptavidin magnetic beads pre-loaded with either BRD0539-biotin or biotin-azide were incubated with WM793-SpCas9 cell lysate for 12 h before processing the samples for western blotting. BRD0539 (20 μM) was used as a competitor. F and E represent the flow-through and eluent, respectively. […]
(Fluorescence polarisation rises when a labelled molecule tumbles more slowly, as on binding a larger partner.)

Setting [7] is: 50 μM BRD7087, 0.75 μM SpCas9:gRNA.
Setting [8] is: 50 μM BRD7087, 1.0 μM SpCas9:gRNA.
The mark [9] stands for this setting: 50 μM BRD7087, 1.25 μM SpCas9:gRNA.
Where [10] appears, read: 50 μM BRD7087, 1.5 μM SpCas9:gRNA.
Setting [11] is: 50 μM BRD7087, 1.75 μM SpCas9:gRNA.

T1 sequence (Q99ZW2 whole entry, one chain of several): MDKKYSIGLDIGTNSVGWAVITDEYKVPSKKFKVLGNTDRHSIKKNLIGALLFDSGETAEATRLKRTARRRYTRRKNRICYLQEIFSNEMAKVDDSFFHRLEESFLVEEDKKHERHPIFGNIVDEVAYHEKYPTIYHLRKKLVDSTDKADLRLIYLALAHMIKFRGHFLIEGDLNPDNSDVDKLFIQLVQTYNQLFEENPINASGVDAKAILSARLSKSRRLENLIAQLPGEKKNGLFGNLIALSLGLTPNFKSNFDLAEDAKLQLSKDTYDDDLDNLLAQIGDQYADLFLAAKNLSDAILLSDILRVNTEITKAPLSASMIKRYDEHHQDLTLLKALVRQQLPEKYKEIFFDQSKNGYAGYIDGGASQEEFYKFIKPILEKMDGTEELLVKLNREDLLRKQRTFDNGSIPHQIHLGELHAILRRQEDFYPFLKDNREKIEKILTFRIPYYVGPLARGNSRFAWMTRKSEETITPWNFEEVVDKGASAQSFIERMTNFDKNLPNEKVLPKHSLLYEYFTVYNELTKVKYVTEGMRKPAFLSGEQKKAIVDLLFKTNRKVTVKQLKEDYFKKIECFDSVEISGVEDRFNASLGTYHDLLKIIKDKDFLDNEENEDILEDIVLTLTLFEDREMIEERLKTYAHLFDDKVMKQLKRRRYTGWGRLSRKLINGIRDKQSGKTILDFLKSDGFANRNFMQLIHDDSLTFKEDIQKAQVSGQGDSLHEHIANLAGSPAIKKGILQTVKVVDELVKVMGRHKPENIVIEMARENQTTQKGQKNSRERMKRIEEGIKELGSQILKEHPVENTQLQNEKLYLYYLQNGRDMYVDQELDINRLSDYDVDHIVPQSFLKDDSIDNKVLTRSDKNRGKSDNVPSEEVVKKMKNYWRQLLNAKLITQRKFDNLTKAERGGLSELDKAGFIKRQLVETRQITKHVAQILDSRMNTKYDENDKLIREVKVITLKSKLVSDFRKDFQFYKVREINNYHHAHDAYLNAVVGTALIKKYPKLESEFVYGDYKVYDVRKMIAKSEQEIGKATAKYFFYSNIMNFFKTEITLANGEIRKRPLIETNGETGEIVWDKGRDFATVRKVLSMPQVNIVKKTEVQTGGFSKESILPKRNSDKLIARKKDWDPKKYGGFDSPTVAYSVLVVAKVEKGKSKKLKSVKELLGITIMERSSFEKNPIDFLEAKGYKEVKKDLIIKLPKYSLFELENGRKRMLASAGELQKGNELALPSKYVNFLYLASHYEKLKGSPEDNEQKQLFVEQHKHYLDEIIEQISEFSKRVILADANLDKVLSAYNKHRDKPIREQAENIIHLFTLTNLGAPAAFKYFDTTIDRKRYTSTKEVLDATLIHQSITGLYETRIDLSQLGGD
T3 sequence (Q99ZW2 whole entry): as the sequence (Q99ZW2 whole entry, one chain of several) above
T2 sequence (Q99ZW2 whole entry): as the sequence (Q99ZW2 whole entry, one chain of several) above

`OC[C@H]1Nc2ccc(-c3cccc(F)c3)cc2[C@H]2[C@@H]1CCN2Cc1ccncc1` [BRD7087, ((3aR,4S,9bR)-8-(3-Fluorophenyl)-1-(pyridin-4-ylmethyl)-2,3,3a,4,5,9b-hexahydro-1H-pyrrolo[3,2-c]quinolin-4-yl) methanol]: the “LW (linewidth of 19F signal)” value in data set [1] (setting [7]) was 4.3 Hz; in data set [1] (setting [8]), 4.6 Hz; in data set [1] (setting [9]), 5.3 Hz; in data set [1] (setting [10]) it was 5.9 Hz; in data set [1] (setting [11]), 6.3 Hz. Further, the receptor occupancy at 50 µM in data set [1] (setting [7]) worked out at 13.1%; in data set [1] (setting [8]) it was 18.2%; in data set [1] (setting [9]), 30.4%; in data set [1] (setting [10]), 34.4%; in data set [1] (setting [11]), 40.1%. Further, the “binding to SpCas9:gRNA by 19F line broadening (in words)” value in data set [1] (significant broadening at protein concentrations as low as 0.75 μM) was “tight binding”. Moreover, the “concentration beyond which aggregates form” value in data set [2] was more than 80 µM. The “no detectable aggregation up to” value in data set [2] is approximately 60 µM.

In the case of `Cc1ccc(S(=O)(=O)N2CC[C@@H]3[C@H](CO)Nc4ccc(-c5ccccc5F)cc4[C@@H]32)cc1` [BRD0539, ((3aR,4R,9bR)-8-(2-fluorophenyl)-1-tosyl-2,3,3a,4,5,9b-hexahydro-1H-pyrrolo[3,2-c]quinolin-4-yl) methanol], the “inhibition of FnCpf1 (in words)” value in data set [3] is reported as “unable to inhibit”. The IC50 in data set [4] is 22 µM. In addition, in data set [5], the “effect on formation of the DNA-bound state of SpCas9 (in words)” value is recorded as “dose-dependently blocked the formation of the DNA bound state; also recorded: dose-dependently blocked the formation of the DNA-bound state”. In addition, in data set [6], the “effect on SpCas9-FITC-crRNA:tracrRNA polarization signal” value is “did not perturb the polarization signal”.
